Experimental data taken from patent US20260027121A1, “LIGAND ACTING ON ADENOSINE RECEPTORS AND COMPOSITION COMPRISING SAME FOR PREVENTION, ALLEVIATION, OR TREATMENT OF OBESITYS” (FUTURE MEDICINE CO., LTD., priority 2022, published 2026).

Experiments:
[1] = molecular target: T1, A3 adenosine receptor (hA3AR) (Homo sapiens, UniProt P0DMS8); assay: Radioligand binding affinity, adherent HEK293 cells stably transfected with hAR cDNA; conditions: normalized to NECA 10 μM
T1 construct: expressed in transfected cells; host or cells: HEK293 (adherent, stably transfected)
T1 sequence (P0DMS8 1-318): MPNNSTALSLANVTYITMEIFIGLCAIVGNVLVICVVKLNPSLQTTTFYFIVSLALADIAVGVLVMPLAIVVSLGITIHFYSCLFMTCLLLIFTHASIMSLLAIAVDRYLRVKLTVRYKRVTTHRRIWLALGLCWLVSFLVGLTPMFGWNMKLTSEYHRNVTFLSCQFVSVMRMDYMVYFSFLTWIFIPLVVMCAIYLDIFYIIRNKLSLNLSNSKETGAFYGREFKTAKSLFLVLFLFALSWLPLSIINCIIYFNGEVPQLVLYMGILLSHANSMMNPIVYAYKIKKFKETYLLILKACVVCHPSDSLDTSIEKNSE
Method: (§1) The binding affinity of LJ-4378 and derivatives thereof to A2AAR and A3AR is as shown in the following [Table 1]. All binding affinity experiments were performed using adherent HEK293 cells stably transfected with cDNAs encoding appropriate hAR bonds, and were performed using 1 nM [3H]17, 10 nM [3H]18, or 0.2 nM [3H]16 as radioligands for A2A and A3AR, respectively. Values were normalized to a non-specific binder 5′-N-ethylcarboxamidoadenosine (NECA, 10 μM).

[2] = molecular target: T2, A2A adenosine receptor (hA2AR) (Homo sapiens, UniProt P29274); assay: as above; conditions: normalized to NECA 10 μM
T2 construct: expressed in transfected cells; host or cells: HEK293 (adherent, stably transfected)
T2 sequence (P29274 whole entry): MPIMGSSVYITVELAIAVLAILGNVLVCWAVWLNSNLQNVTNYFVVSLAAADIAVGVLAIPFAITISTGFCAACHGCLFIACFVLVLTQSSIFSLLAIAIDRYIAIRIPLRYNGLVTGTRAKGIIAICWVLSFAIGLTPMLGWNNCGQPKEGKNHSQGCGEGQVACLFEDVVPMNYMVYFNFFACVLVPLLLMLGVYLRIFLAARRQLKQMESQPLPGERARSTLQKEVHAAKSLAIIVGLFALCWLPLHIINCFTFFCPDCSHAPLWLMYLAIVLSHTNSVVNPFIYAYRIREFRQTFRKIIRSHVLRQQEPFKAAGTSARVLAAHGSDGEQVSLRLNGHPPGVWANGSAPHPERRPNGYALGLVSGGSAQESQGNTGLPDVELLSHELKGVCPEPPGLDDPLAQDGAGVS
Method: as §1

brown adipocytes [3] = assay: Immunoblot of PKA downstream proteins (P-HSL, P-CREB) in brown adipocytes; type: cell-based, mouse; conditions: 0.1 μM, 24 hours, FIG. 3D
Method: (§2) Adipocyte precursor cells capable of differentiating into brown adipocytes were isolated from mouse brown adipose tissue. Cells were cultured in Dulbecco's modified Eagle's medium (Welgene, LM001-07) containing 10% fetal bovine serum (FBS, Gibco, 16000044) and 1% Penicillin Streptomycin (Welgene, LS202-02) at 37° C. in a humidified atmosphere with 5% CO2. When the cells reached about 100% confluency, the cells were exposed to a differentiation medium supplemented with 2.5 mM isobutyl methylxanthine (IBMX, Cayman, I5879), 0.125 mM indomethacin (Cayman, 70270), 1 μM dexamethasone (Cayman), 1 μg/mL insulin (Sigma, I9278), and 1 nM triiodothyronine (T3, Cayman, 6028) for 3 days for adipogenesis. Then, the cells were maintained in a growth medium containing 1 μg/mL insulin and 1 nM triiodothyronine (T3) for 3 days.
(§3) In the case of Western blots, the primary antibodies used for Western blots are summarized in [Table 2] above. An anti-rabbit horseradish peroxidase antibody (1:3000, Thermo Fisher, 31460) and an anti-mouse horseradish peroxidase antibody (1:3000, Jackson, 115-035-174) were used as secondary antibodies. All antibodies were diluted in a blocking buffer (5% skimmed milk or 5% bovine serum albumin in TBST). Western blot images were acquired using a Fusion Solo chemiluminescence imaging system (Vilber Lourmat) and analyzed with Evolution Capt software (version 17.03). NIH ImageJ software was used for quantification.

brown adipocytes [4] = assay: Lipolysis: glycerol and free fatty acid levels in conditioned medium; type: cell-based, mouse; conditions: 0.1 μM, 24 hours
Method: as §2
The free fatty acid (FFA) levels in the medium were measured using an NEFA reagent (WAKO, 436-91693) according to the manufacturer's product protocol.
Glycerol and free fatty acid (FFA) levels in a medium were measured using a glycerol reagent (Sigma Aldrich, F6428) and a NEFA reagent (WAKO, 436-91693) according to the manufacturer's product protocols.

CIDEA reporter mice = assay: qPCR of brown adipocyte markers in brown adipose tissue; type: in vivo, mouse; conditions: BAT, 1 mg kg-1/day, 10 days
Method: Mice were treated with vehicle (CTL), LJ-4378 (LJ, 1 mg kg-1/day), […] (CGS21680, 1 mg kg-1/day), or A3 antagonist (LJ-4433, 1 mg kg-1/day) for 10 days. (A-B) Representative bioluminescence in dorsal and lateral positions (n=3, mean±SEM, ** p<0.01, **** p<0.0001). (C) Representative ex vivo fluorescence image and quantification of fluorescence intensity of BAT and iWAT (n=3, mean±SEM, ** p<0.01, **** p<0.0001). (D) qPCR analysis of UCP1 and CIDEAM RNA expression levels of brown adipose tissue (BAT) (n=3, mean±SEM, * p<0.05, ** p<0.01, *** p<0.001).
qPCR analysis was performed to investigate the adenosine receptor expression levels in brown adipocytes differentiated from immortalized brown adipocyte precursor cells. Primers used for the qPCR analysis are listed in the following [Table 3].

brown adipocytes [5] = assay: Immunoblot of mitochondrial proteins and UCP1 in brown adipocytes; type: cell-based, mouse; conditions: 0.1 μM, 24 hours, FIG. 4D
Method: as §2, §3

| SMILES | Ki [1] [nM] | Ki [2] [nM] | further results |
| --- | --- | --- | --- |
| CC#Cc1nc(NCc2cccc(Br)c2)c2ncn([C@@H]3SC[C@@H](O)[C@H]3O)c2n1 [Compound 9d, (2R,3R,4S)-2-(6-((3-bromobenzyl)amino)-2-(prop-1-yn-1-yl)-9H-purin-9-yl)tetrahydro thiophene-3,4-diol] | 11.1 | 469 |  |
| CCC#Cc1nc(NCc2cccc(Cl)c2)c2ncn([C@@H]3SC[C@@H](O)[C@H]3O)c2n1 [Compound 9h, (2R,3R,4S)-2-(2-(but-1-yn-1-yl)-6-((3-chlorobenzyl)amino)-9H-purin-9-yl)tetrahydrothiophene-3,4-diol] | 3.8 | 239 |  |
| CCC#Cc1nc(NCc2cccc(Br)c2)c2ncn([C@@H]3SC[C@@H](O)[C@H]3O)c2n1 [Compound 9i, (2R,3R,4S)-2-(6-((3-bromobenzyl)amino)-2-(but-1-yn-1-yl)-9H-purin-9-yl)tetrahydrothiophene-3,4-diol] | 0.293 | 113 |  |
| CCC#Cc1nc(NCc2cccc(F)c2)c2ncn([C@@H]3SC[C@@H](O)[C@H]3O)c2n1 [Compound 9g, (2R,3R,4S)-2-(2-(but-1-yn-1-yl)-6-((3-fluorobenzyl)amino)-9H-purin-9-yl)tetrahydrothiophene-3,4-diol] | 9.5 | 914 |  |
| CCC#Cc1nc(NCc2cccc(I)c2)c2ncn([C@@H]3SC[C@@H](O)[C@H]3O)c2n1 [Compound 9j, (2R,3R,4S)-2-(2-(but-1-yn-1-yl)-6-((3-iodobenzyl)amino)-9H-purin-9-yl)tetrahydrothiophene-3,4-diol] | 8.6 | 58 |  |
| CCC#Cc1nc(N)c2ncn([C@@H]3SC[C@@H](O)[C@H]3O)c2n1 [Compound 9f, (2R,3R,4S)-2-(6-amino-2-(but-1-yn-1-yl)-9H-purin-9-yl)tetrahydrothiophene-3,4-diol] | 67.3 | 23.9 |  |
| CC#Cc1nc(N)c2ncn([C@@H]3SC[C@@H](O)[C@H]3O)c2n1 [Compound 9a, (2R,3R,4S)-2-(6-amino-2-(prop-1-yn-1-yl)-9H-purin-9-yl)tetrahydrothiophene-3,4-diol] | 64.7 | 117 |  |
| CCNC(=O)[C@H]1O[C@@H](n2cnc3c(N)nc(NCCc4ccc(CCC(=O)O)cc4)nc32)[C@H](O)[C@@H]1O [CGS21680, reference compound] |  |  | P-CREB, fold increase (brown adipocytes [3]): 2.00±0.11 fold; P-HSL, fold increase (brown adipocytes [3]): 1.54±0.05 fold; glycerol level in conditioned medium, fold change (brown adipocytes [4]; FIG. 3B): 1.51±0.08 fold; FFA level in conditioned medium, fold change (brown adipocytes [4]; FIG. 3C): 1.29±0.09 fold; Cidea mRNA level, fold increase (CIDEA reporter mice): 1.29±0.12 fold; Ucp1 mRNA level, fold increase (CIDEA reporter mice): 1.72±0.17 fold; COXIV, fold increase (brown adipocytes [5]): increased; MCAD, fold increase (brown adipocytes [5]): increased; UCP1, fold increase (brown adipocytes [5]): increased |
| CC#Cc1nc(NCc2cccc(I)c2)c2ncn([C@@H]3SC[C@@H](O)[C@H]3O)c2n1 [Compound 9e, (2R,3R,4S)-2-(6-((3-iodobenzyl)amino)-2-(prop-1-yn-1-yl)-9H-purin-9-yl)tetrahydro thiophene-3,4-diol] | 20.1 | 121 |  |
| CC#Cc1nc(NCc2cccc(F)c2)c2ncn([C@@H]3SC[C@@H](O)[C@H]3O)c2n1 [Compound 9b, (2R,3R,4S)-2-(6-((3-fluorobenzyl)amino)-2-(prop-1-yn-1-yl)-9H-purin-9-yl)tetrahydro thiophene-3,4-diol] | 30.5 | 772 |  |
| CC#Cc1nc(NCc2cccc(Cl)c2)c2ncn([C@@H]3SC[C@@H](O)[C@H]3O)c2n1 [Compound 9c, (2R,3R,4S)-2-(6-((3-chlorobenzyl)amino)-2-(prop-1-yn-1-yl)-9H-purin-9-yl)tetrahydro thiophene-3,4-diol] | 1.5 | 221 |  |
